Assay results published in patent US20230107642A1 (Erasca, Inc., priority 2020, published 2023).
Each block holds one compound with its values, some of them ahead of it.

Biological target: T1, Cys12 of the KRAS 4B G12C protein (Homo sapiens, UniProt P01116, G12C)
T1 construct: This protein contained 188 amino acids in total, including an N-terminal 6-Histidine tag; made in house; host or cells: E. coli BL21
Assay: In vitro covalent adduct formation (CAF) assay, LC-MS intact mass
Type: binding
Conditions: for % CAF 10 uM @ 60 min: 10 uM compound
Summary of the method: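 Percent covalent modification from intact-mass LC-MS, by relative free versus adducted protein (adducts within 1 Da of expected mass). Reaction: 10 μM compound with 5 μM E. coli-expressed, GDP-exchanged KRAS 4B G12C in TBS pH 7.4, 4% DMSO, 1 h at 22° C.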

- % CAF 10 uM @ 60 min (60 min): 51%
Structure (SMILES): C=CC(=O)N1[C@H](C)CN(c2nc(=O)n3c4c(c(-c5cc(Cl)c(F)cc5F)c(C(F)(F)F)cc24)SC[C@@H](N2CCCC2)C3)C[C@@H]1C (atropisomer, axis not shown) [Example 1440, (3S,11S)-8-((3S,5R)-4-acryloyl-3,5-dimethylpiperazin-1-yl)-11-(5-chloro-2,4-difluorophenyl)-3-(pyrrolidin-1-yl) 10-(trifluoromethyl)-3,4-dihydro-[1,4]thiazepino[2,3,4-ij]quinazolin-6-one]

- % CAF 10 uM @ 60 min (60 min): 95%
Structure (SMILES): C=CC(=O)N1[C@H](C)CN(c2nc(=O)n3c4c(c(-c5cc(Br)c(F)cc5F)c(C(F)(F)F)cc24)SC[C@@H]3COC)C[C@@H]1C (atropisomer, axis not shown) [Example 1448, (3S,10S)-7-((3S,5R)-4-Acryloyl-3,5-dimethylpiperazin-1-yl)-10-(5-bromo-2,4-difluorophenyl)-3-(methoxymethyl)-9-(trifluoromethyl)-2,3-dihydro-5H-[1,4]thiazino[2,3,4-ij]quinazolin-5-one]

- % CAF 10 uM @ 60 min (60 min): 83.7%
Structure (SMILES): C=CC(=O)N1CCN(c2nc(=O)n3c4c(c(-c5cc(Cl)c(F)cc5F)c(C(F)(F)F)cc24)SC[C@@H]3COCOC)CC1 (atropisomer, axis not shown) [Example 1365]

- CAF (% after 1 hour) (10 μM compound, after 1 hour): 95%
Structure (SMILES): C=CC(=O)N1[C@H](C)CN(c2nc(=O)n3c4c(c(-c5ccc(F)cn5)c(C(F)(F)F)cc24)SC[C@@H](OC)C3)C[C@@H]1C [Example 1207, (S)-8-((3S,5R)-4-acryloyl-3,5-dimethylpiperazin-1-yl)-11-(5-fluoropyridin-2-yl)-3-methoxy-10-(trifluoromethyl)-3,4-dihydro-2H,6H-[1,4]thiazepino[2,3,4-ij]quinazolin-6-one]

- % CAF 10 uM @ 60 min (60 min incubation): 98%
Structure (SMILES): C=CC(=O)N1[C@H](C)CN(c2nc(=O)n3c4c(c(-c5ccc(F)cc5)c(C(F)(F)F)cc24)SC[C@@H]3COC)C[C@@H]1C [Example 1103, (S)-7-((3S,5R)-4-acryloyl-3,5-dimethylpiperazin-1-yl)-10-(4-fluorophenyl)-3-(methoxymethyl)-9-(trifluoromethyl)-2,3-dihydro-5H-[1,4]thiazino[2,3,4-ij]quinazolin-5-one]

Second part, the compound before the results:

Structure (SMILES): C=CC(=O)N1CCN(c2nc(=O)n3c4c(c(-c5ccc(F)cc5F)c(C(F)(F)F)cc24)SC[C@@H]3CN2C[C@@H]3C[C@H]2CO3)CC1 (atropisomer, axis not shown) [Example 1306, (3S,10S)-3-(((1S,4S)-2-oxa-5-azabicyclo[2.2.1]heptan-5-yl)methyl)-7-(4-acryloylpiperazin-1-yl)-10-(2,4-difluorophenyl)-9-(trifluoromethyl)-2,3-dihydro-5H-[1,4]thiazino[2,3,4-ij]quinazolin-5-one]
- % CAF 10 uM @ 60 min (60 min): 96.8%

Structure (SMILES): C=CC(=O)N1CCN(c2nc(=O)n3c4c(c(-c5ccc(F)c(Cl)c5)c(C(F)(F)F)cc24)SC[C@H](OCCOC)C3)CC1 [Example 1020, (R)-8-(4-acryloylpiperazin-1-yl)-11-(3-chloro-4-fluorophenyl)-3-(2-methoxyethoxy)-10-(trifluoromethyl)-3,4-dihydro-2H,6H-[1,4]thiazepino[2,3,4-ij]quinazolin-6-one]
- CAF (% binding after 60 min): 97%

Structure (SMILES): C=CC(=O)N1C[C@H](C)N(c2nc(=O)n3c4c(c(-c5cc(Cl)c(F)cc5F)c(C(F)(F)F)cc24)SCC2(COC2)C3)C[C@H]1C [Example 1122, 8′-((2S,5R)-4-acryloyl-2,5-dimethylpiperazin-1-yl)-11′-(5-chloro-2,4-difluorophenyl)-10′-(trifluoromethyl)-2′H,4′H,6′H-spiro[oxetane-3,3′-[1,4]thiazepino [2,3,4-ij]quinazolin]-6′-one]
- % CAF 10 uM @ 60 min (60 min incubation): 74.3%

Structure (SMILES): C=CC(=O)N1CCN(c2nc(=O)n3c4c(c(-c5ccc(F)c(Cl)c5)c(C(F)(F)F)cc24)SC[C@@H](OC)C3)CC1 [Example 1042, (S)-8-(4-acryloylpiperazin-1-yl)-11-(3-chloro-4-fluorophenyl)-3-methoxy-10-(trifluoromethyl)-3,4-dihydro-2H,6H-[1,4]thiazepino[2,3,4-ij]quinazolin-6-one]
- CAF (% binding after 60 min): 97%
